Test results from PMC3921447, “Homologous and heterologous desensitization of guanylyl cyclase-B signaling in GH3 somatolactotropes” (Cell and Tissue Research, 2013).
Read-outs that look alike come from different tables or passages of the source. Ends that are not written are not given here.

What was measured:
[1] = test system: human airway smooth muscle cells; settings: ref Hamad and Knox [1999]; cited from earlier work
Excerpt: (§1) The other major mechanism mediating heterologous desensitization of GC-A and GC-B signaling is the PKC pathway (Potter et al. [2006]). We examined the effects of pre-treatment with TRH, PMA, or PACAP. […] This is in agreement with the predominant expression of vasoactive intestinal peptide activated receptor 2, which is known preferentially to activate cAMP and PKA (Hao et al. [2006]). In contrast, pre-treatments with two known activators of PKC, TRH and PMA do ...

GC-B [2] = target: T1, GC-B (Rattus norvegicus, UniProt P16067); assay: Heterologous desensitization of CNP-stimulated (GC-B) cGMP accumulation in GH3 cells; type: cell-based; settings: then 100 nM CNP 15 min with 1 mM IBMX, n = 3
T1 construct: rapid homologous desensitization of endogenous GC-B receptors in GH3 cells; endogenous in cells; host or cells: GH3 rat somatolactotrope cells
T1 sequence (P16067 17-1047): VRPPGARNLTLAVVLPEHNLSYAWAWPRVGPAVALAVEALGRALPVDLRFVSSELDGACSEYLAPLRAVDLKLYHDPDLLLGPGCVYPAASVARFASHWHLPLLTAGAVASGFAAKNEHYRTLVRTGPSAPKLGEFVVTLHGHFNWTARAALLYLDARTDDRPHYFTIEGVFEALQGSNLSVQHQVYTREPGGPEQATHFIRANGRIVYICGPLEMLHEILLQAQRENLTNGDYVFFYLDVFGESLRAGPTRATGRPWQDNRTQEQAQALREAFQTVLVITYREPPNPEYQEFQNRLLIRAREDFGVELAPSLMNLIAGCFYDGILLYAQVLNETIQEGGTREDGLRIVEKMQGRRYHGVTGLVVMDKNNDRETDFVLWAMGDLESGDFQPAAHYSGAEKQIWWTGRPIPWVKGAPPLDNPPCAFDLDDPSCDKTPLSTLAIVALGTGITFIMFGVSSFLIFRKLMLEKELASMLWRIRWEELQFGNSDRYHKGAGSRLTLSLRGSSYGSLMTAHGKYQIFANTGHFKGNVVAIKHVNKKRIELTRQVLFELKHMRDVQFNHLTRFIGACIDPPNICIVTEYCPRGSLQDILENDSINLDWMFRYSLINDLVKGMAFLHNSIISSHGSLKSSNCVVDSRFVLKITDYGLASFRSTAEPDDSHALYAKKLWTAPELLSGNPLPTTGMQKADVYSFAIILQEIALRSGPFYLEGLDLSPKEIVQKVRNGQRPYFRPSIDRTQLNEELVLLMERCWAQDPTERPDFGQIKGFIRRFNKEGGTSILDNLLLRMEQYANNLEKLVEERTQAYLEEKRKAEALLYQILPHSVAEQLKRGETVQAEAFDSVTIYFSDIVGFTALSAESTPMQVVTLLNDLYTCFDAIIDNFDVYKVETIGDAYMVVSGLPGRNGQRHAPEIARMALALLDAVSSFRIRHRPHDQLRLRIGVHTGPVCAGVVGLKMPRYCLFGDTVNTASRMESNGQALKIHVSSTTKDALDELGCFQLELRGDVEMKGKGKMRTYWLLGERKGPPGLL
Excerpt: (§2) Sphingolipids and calcium have been implicated in regulating natriuretic peptide signaling (Abbey-Hosch et al. [2004]; Abbey and Potter [2002]). Therefore, we examined the role of sphingosine-1-phosphate (S1P) on CNP-stimulated cGMP accumulation. […] However, S1P pre-treatment did cause desensitization of CNP-stimulated cGMP accumulation (by 30 ± 2.7 % compared with control, **P < 0.01).
(§3) Fig. 6 Evidence of sphingosine-mediated but not calcium-mediated, heterologous desensitization of GC-B signaling in GH3 somatolactotrope cells. GH3 cells were pre-treated with PSS containing either (a, b) 10 μM sphingosine-1-phosphate (S1P) or (c, d) 1 μM A23187 (calcium ionophore) for 30 min in the absence of IBMX, before a 15-min stimulation with either 100 nM CNP (a, c) or 100 nM ANP (b, d) in the presence of 1 mM IBMX.
(§4) Subsequent experiments examined the potential regulation of GC-B signaling by other peptide hormones. To determine whether the GC-B receptor underwent heterologous desensitization in GH3 cells, the effect of three known activators of PKC on CNP-stimulated cGMP accumulation was analyzed. […] To establish whether the TRH-induced heterologous desensitization of GC-B signaling was PKC-dependent, GH3 cells were pre-treated with either 0 or 1 μM GF109203X for 30 min to inhibit PKC activity. After this, cells were further pre-treated in the absence or presence of GF109203X and 0 or 100 nM TRH for a further 30 min, prior to stimulation with 0 or 100 nM CNP for a final 15-min stimulation in the presence of 1 mM IBMX.
(§5) Fig. 7 Protein kinase C (PKC)-dependent heterologous desensitization mediates the effects of thyrotrophin-releasing hormone (TRH) on CNP-stimulated GC-B signaling in GH3 somatolactotrope cells. a GH3 cells were pre-treated with PSS containing either 0 or 100 nM TRH, phorbol-12-myristate-13-acetate (PMA), or pituitary adenylate cyclase-activating polypeptide (PACAP) for 30 min in the absence of IBMX, before a 15-min stimulation with either 0 or 100 nM CNP in the presence of 1 mM IBMX.

GC-B [3] = settings: αT3-1 cells, cited from earlier work
Excerpt: Experimental paradigms to investigate receptor desensitization are often performed in one of two ways: time-course studies of a single continuous exposure to ligand or pre-treatment and subsequent re-exposure to the same ligand. Our current studies involved the use of both of these approaches to examine particulate guanylyl cyclase signaling in GH3 cells, similar to previous studies investigating PACAP signaling in gonadotropes (McArdle and Forrest-Owen [1997]). Time-course studies of CNP-stimulated cGMP accumulation in GH3 cells have shown a rapid elevation of cGMP levels within 5 min of CNP ... || The other major mechanism mediating heterologous desensitization of GC-A and GC-B signaling is the PKC pathway (Potter et al. [2006]). We examined the effects of pre-treatment with TRH, PMA, or PACAP. […] This is in agreement with the predominant expression of vasoactive intestinal peptide activated receptor 2, which is known preferentially to activate cAMP and PKA (Hao et al. [2006]). In contrast, pre-treatments with two known activators of PKC, TRH and PMA do ...

GH3 cells = assay: Basal cGMP accumulation in GH3 cells after pre-treatment; type: cell-based, rat; settings: 100 nM TRH, PMA or PACAP, 30 min pre-treatment; ns, P > 0.05; Fig. 7a
Excerpt: as §2, §3, §4, §5

GC-B [4] = settings: 293 T cells; ref Abbey-Hosch et al. [2005]; cited from earlier work
Excerpt: as §1

growth hormone secretion = settings: ref Hartt et al. [1995]; Shimekake et al. [1994]; cited from earlier work
Excerpt: Both humans and mice with mutations in the genes encoding either CNP or its receptor, GC-B, suffer from severe growth disorders (Chusho et al. [2001]) and, in some cases, growth hormone deficiency (Tamura et al. [2004]). Despite significant homology between the three natriuretic peptides and between their receptors, mutations in the genes encoding ANP, BNP, or GC-A fail to phenocopy CNP/GC-B-disrupted mice (Kishimoto et al. [2011]). Our recent observations of GC-B expression in normal fetal pituitary tissue and in a range of human pituitary adenomas (including those from acromegalics) strongly ...

CN(C)CCCn1cc(C2=C(c3c[nH]c4ccccc34)C(=O)NC2=O)c2ccccc21 [GF109203X]
reversal of PKC-dependent desensitization [1]: capable of reversing the effect, as has been described previously in human airway smooth muscle cells | CNP-stimulated cGMP, % of control response to CNP (TRH desensitization reversed to) (GC-B [2]; 1 μM GF109203X 30 min, then GF109203X + 100 nM TRH 30 min, ns compared with control, Fig. 7b): 76.4 ± 17.2%

gonadotrophin-releasing hormone (QHWSYGLRPG; ends and bridges not checked; UniProt P01148 24-33, looked up)
heterologous desensitization of GC-B signaling (GC-B [3]; ref McArdle et al. [1994], Fowkes et al. [2000]): can cause the heterologous desensitization of GC-B signaling in αT3-1 cells

CCCCCCCCCCCCCC(=O)O[C@@H]1[C@@H](C)[C@@]2(O)[C@@H](C=C(CO)C[C@]3(O)C(=O)C(C)=C[C@@H]23)[C@@H]2C(C)(C)[C@]12OC(C)=O [PMA, phorbol-12-myristate-13-acetate]
basal cGMP accumulation (GH3 cells): failed to alter basal cGMP accumulation | desensitization of GC-B activity (GC-B [4]): shown to desensitize GC-B activity in 293 T cells and αT3-1 cells | reduction in CNP-stimulated cGMP accumulation compared with control (GC-B [2]; 100 nM, 30 min pre-treatment without IBMX, ***P < 0.001, Fig. 7a): 51.9 ± 2.8% | desensitization of GC-B activity (GC-B [3]; ref Fowkes et al. [2000]): shown to desensitize GC-B activity in 293 T cells and αT3-1 cells

Nc1nc2c(ncn2[C@@H]2O[C@@H]3COP(=O)(O)O[C@H]3[C@H]2O)c(=O)[nH]1 [cGMP, cyclic guanosine 3’,5’ monophosphate]
growth hormone secretion (growth hormone secretion): act as growth hormone secretogogs
